Test results as given in patent US11505553B2, “2-(Het)aryl-substituted fused heterocycle derivatives as pesticides” (Bayer Aktiengesellschaft, priority 2017, dated 2022).
Read-outs that look alike come from different tables or passages of the source.

Columns and labels:
Assay type in all cases: in vivo
Myzus persicae [1] = assay: Myzus persicae drench test (MYZUPE D); conditions: soil, 240 h, 10 dat, read-out: % efficacy
Method: Solvent: 7 parts by weight of dimethylformamide Emulsifier: 2 parts by weight of alkylaryl polyglycol ether To produce an appropriate active ingredient formulation, 1 part by weight of active ingredient is mixed with the stated amounts of solvent and emulsifier, and the concentrate is diluted with water to the desired concentration, it being necessary to take into account soil volume into which drenching is effected. It should be ensured that a concentration of 40 ppm of emulsifier in the soil is not exceeded. For production of further test concentrations, the mixture is diluted with water. Savoy cabbage plants (Brassica oleracea) in earth pots, infested by all stages of the green peach aphid (Myzus persicae), are drenched with an active ingredient formulation of the desired concentration. After the desired time, the efficacy in % is determined. 100% means that all aphids have been killed; 0% means that no aphids have been killed.

Aphis gossypii = Aphis gossypii spray test (APHIGO); conditions: 144 h, 6 dat, read-out: % efficacy
Method: Solvent: 14 parts by weight of dimethylformamide Emulsifier: alkylaryl polyglycol ether To produce an appropriate active ingredient formulation, 1 part by weight of active ingredient is dissolved with the stated parts by weight of solvent and made up with water containing an emulsifier concentration of 1000 ppm until the desired concentration is attained. For production of further test concentrations, the mixture is diluted with emulsifier-containing water. If addition of ammonium salts or/and penetrants is required, these are each added to the preparation solution in a concentration of 1000 ppm. Cotton plants (Gossypium hirsutum) severely infested by the cotton aphid (Aphis gossypii) are sprayed with an active ingredient formulation of the desired concentration. After the desired time, the kill in % is determined. 100% means that all aphids have been killed; 0% means that no aphids have been killed.

Nilaparvata lugens [2] = assay: Nilaparvata lugens spray test (NILALU); conditions: 96 h, 4 dat, read-out: % efficacy
Method: Solvent: 52.5 parts by weight of acetone • 7 parts by weight of dimethylformamide
Emulsifier: alkylaryl polyglycol ether
To produce an appropriate active ingredient formulation, 1 part by weight of active ingredient is dissolved with the stated parts by weight of solvent and made up with water containing an emulsifier concentration of 1000 ppm until the desired concentration is attained. For production of further test concentrations, the mixture is diluted with emulsifier-containing water. If addition of ammonium salts or/and penetrants is required, these are each added to the preparation solution in a concentration of 1000 ppm.
Rice plants (Oryza sativa) are sprayed with an active ingredient formulation of the desired concentration and then populated with larvae of the rice cicada (Nilaparvata lugens).
After the desired time, the efficacy in % is determined. 100% means that all rice cicadas have been killed; 0% means that no rice cicadas have been killed.

Myzus persicae [3] = assay: Myzus persicae spray test (MYZUPE), contrastive examples; conditions: 120 h, 5 dat, read-out: % efficacy
Method: Solvent: 78.0 parts by weight of acetone • • 1.5 parts by weight of dimethylformamide Emulsifier: alkylaryl polyglycol ether To produce a suitable active ingredient formulation, 1 part by weight of active ingredient is dissolved with the specified parts by weight of solvent and made up to the desired concentration with water containing an emulsifier concentration of 1000 ppm. To produce further test concentrations, the formulation is diluted with emulsifier-containing water. Discs of chinese cabbage leaves (Brassica pekinensis) infested by all stages of the green peach aphid (Myzus persicae) are sprayed with an active ingredient formulation of the desired concentration. After the desired time, the efficacy in % is determined. 100% means that all aphids have been killed; 0% means that no aphids have been killed.

Tetranychus urticae = Tetranychus urticae spray test; OP-resistant (TETRUR), contrastive examples; conditions: 144 h, 6 dat, read-out: % efficacy
Method: Solvent: 78.0 parts by weight of acetone • • 1.5 parts by weight of dimethylformamide Emulsifier: alkylaryl polyglycol ether To produce an appropriate active ingredient formulation, 1 part by weight of active ingredient is dissolved with the stated parts by weight of solvent and made up with water containing an emulsifier concentration of 1000 ppm until the desired concentration is attained. For production of further test concentrations, the mixture is diluted with emulsifier-containing water. Discs of bean leaves (Phaseolus vulgaris) infested by all stages of the common spider mite (Tetranychus urticae) are sprayed with an active ingredient formulation of the desired concentration. After the desired time, the efficacy in % is determined. 100% means that all spider mites have been killed; 0% means that no spider mites have been killed.

Nilaparvata lugens [4] = assay: Nilaparvata lugens test (NILALU S); conditions: read-out: % efficacy
Method: Solvent: 14 parts by weight of dimethylformamide Emulsifier: 2 parts by weight of alkylaryl polyglycol ether To produce an appropriate active ingredient formulation, 1 part by weight of active ingredient is dissolved with the stated parts by weight of solvent and emulsifier and made up with water until the desired concentration is attained. For production of further test concentrations, the mixture is diluted with water. If addition of ammonium salts or/and penetrants (rapeseed oil methyl ester) is required, these are each pipetted into the finished preparation solution in a concentration of 1000 ppm after the dilution. Rice plants (Oryza sativa, var. Balilla) are treated by spraying with the active ingredient formulation in the desired concentration and then populated with L3 larvae of the brown planthopper (Nilaparvata lugens). After the desired time, the kill in % is determined. 100% means that all planthoppers have been killed and 0%, means that no planthoppers have been killed.

Nezara viridula = Nezara viridula spray test (NEZARA); conditions: 96 h, NEZAVI, 4 dat, read-out: % efficacy
Method: Solvent: 52.5 parts by weight of acetone • 7 parts by weight of dimethylformamide Emulsifier: alkylaryl polyglycol ether To produce an appropriate active ingredient formulation, 1 part by weight of active ingredient is dissolved with the stated parts by weight of solvent and made up with water containing an emulsifier concentration of 1000 ppm until the desired concentration is attained. For production of further test concentrations, the mixture is diluted with emulsifier-containing water. If addition of ammonium salts or/and penetrants is required, these are each added to the preparation solution in a concentration of 1000 ppm. Barley plants (Hordeum vulgare) infested with larvae of the southern green shield bug (Nezara viridula) are sprayed with an active ingredient formulation of the desired concentration. After the desired time, the efficacy in % is determined. 100% means that all bugs have been killed; 0% means that no bugs have been killed.

## CCNC(=O)Nc1ccc(S(=O)(=O)CC)c(-c2nc3cc(C(F)(F)C(F)(F)F)nnc3n2C)n1 [Comparison, reference compound]
Myzus persicae [1]
  Emax at 0.8 ppm: 0%
Aphis gossypii
  Emax at 4 ppm: 15%
Nilaparvata lugens [2]
  Emax at 4 g/ha: 0%
Myzus persicae [3]
  Emax at 4 g/ha: 0%
Tetranychus urticae
  Emax at 100 g/ha: 0%
Nilaparvata lugens [4]; 168 h, 7 dat
  Emax at 0.8 ppm: 5%
Nilaparvata lugens [4]; 336 h, 14 dat
  Emax at 0.8 ppm: 20%
Nezara viridula
  Emax at 0.8 g/ha: 0%
